Laboratory results published in doi:10.1101/705459v3 (bioRxiv, 2019).
Entries after “also recorded” stand apart in the source; their conditions may differ. Peptide text beside a SMILES is read from it.

Columns and labels:
[1] = system: EA.hy926 cells; assay type: cell-based, human
[2] = biological target: CMG2 (Homo sapiens, UniProt P58335, C175A/R40C); test: biochemical; assay type: binding; conditions: for koff: read-out: off-rate / koff (BLI)
[3] = biological target: TEM8 (Homo sapiens, UniProt Q9H6X2); assay type: binding; conditions: 250nM mCitrine-TEM8, 325nM PA-546; S16 313 nM to 40 μM
Sequence of TEM8 (Q9H6X2 44-215 limits assumed): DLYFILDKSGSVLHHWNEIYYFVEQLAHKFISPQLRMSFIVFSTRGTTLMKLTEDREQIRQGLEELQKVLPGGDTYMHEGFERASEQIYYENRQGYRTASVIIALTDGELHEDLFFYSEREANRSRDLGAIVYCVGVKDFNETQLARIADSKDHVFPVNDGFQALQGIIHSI

[4] = system: EOMA cells; assay type: cell-based, murine
[5] = system: EOMA cells; assay type: cell-based, murine; conditions: n=3

Sequence of CMG2 (P58335 40-217 R40C/C175A limits assumed): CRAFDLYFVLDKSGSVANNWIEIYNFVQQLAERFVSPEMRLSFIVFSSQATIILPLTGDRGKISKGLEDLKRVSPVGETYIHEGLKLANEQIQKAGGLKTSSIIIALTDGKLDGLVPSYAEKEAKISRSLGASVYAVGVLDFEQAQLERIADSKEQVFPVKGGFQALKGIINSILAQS

Q: Which “reduction of migration toward serum” value [1] does the source give for `CC[C@H](C)[C@H](NC(=O)[C@H](C)NC(=O)[C@@H](NC(=O)[C@H](C)NC(=O)[C@@H]1CCCN1)[C@@H](C)CC)C(=O)N[C@@H](C)C(=O)N[C@H](C(=O)N[C@@H](Cc1c[nH]cn1)C(=O)N[C@@H](CO)C(=O)N[C@@H](CCC(N)=O)C(=O)N[C@@H](CC(=O)O)C(=O)N[C@H](C(=O)N[C@@H](CO)C(=O)N[C@H](C(=O)N1CCC[C@H]1C(=O)O)[C@@H](C)CC)C(C)C)C(C)C` [Peptide S16] (H-PAIAIAVHSQDVSIP-OH; N-terminus and C-terminus assumed) here?
A: ~ 90%

Q: What about the “S16 binding to CMG2 in EDTA (BLI)” value ([2]; 10 mM EDTA instead of 2 mM CaCl2 and 1 mM MgCl2, 10 µM S16, n=3) of the same compound?
A: prevents S16 binding

Q: And the “on-rate (BLI)” value ([2]; 1:1 model)?
A: ≈ 2 × 10^2 M^−1s^−1

Q: And the “binding on BLI of S16 prepared to encourage monomerization” value ([2]; S16 prepared in a fashion that encourages monomerization)?
A: binding is not observed

Q: What about the koff [2] of the same compound?
A: ~0.0001 s⁻¹

Q: And the “S16 binding to CMG2 sensors treated with PA before S16 (BLI)” value ([2]; sensors equilibrated with 500 nM PA, then 10 µM S16, n=3)?
A: reduced

Q: What about the “inhibition of TEM8-PA FRET” value [3] of the same compound?
A: negligible; also recorded: unable to compete

Q: And the “proliferation relative to untreated control” value [4]?
A: no change in proliferation

Q: What about the “reduction in wound closure” value [5] of the same compound?
A: 60%

Q: What does the source list for `CC[C@H](C)[C@H](NC(=O)[C@H](CO)NC(=O)[C@@H](N)C(C)C)C(=O)NCC(=O)N[C@@H](Cc1ccc(O)cc1)C(=O)N[C@@H](CC(C)C)C(=O)N[C@@H](CC(C)C)C(=O)N[C@H](C(=O)N[C@@H](CCCCN)C(=O)N[C@@H](Cc1c[nH]cn1)C(=O)N[C@@H](CO)C(=O)N[C@@H](CCC(N)=O)C(=O)N[C@H](C(=O)N[C@@H](CC(=O)O)C(=O)N[C@@H](CCC(N)=O)C(=O)O)[C@@H](C)O)C(C)C` [Peptide U12] (H-VSIGYLLVKHSQTDQ-OH; N-terminus and C-terminus assumed)?
A: koff [2]: 0.0125 ± 0.0002 s⁻¹; kon (BLI) ([2]; representative fit): 150 ± 10 M/s

Q: Which “directional migration versus vehicle” value [1] does the source give for “SPIAVDVQSAPIHAI [scrambled S16, reference compound]” here?
A: no significant difference

Q: What about the “binding of CMG2 (BLI), in words” value ([2]; concentrations up to 30 μM, 3 independent experiments, no binding model fits) of the same compound?
A: minimal binding
